Data on two compounds can be found in patent US20150073055A1, “USE OF MODAFINIL IN THE TREATMENT OF COCAINE ADDICTS” (DEBREGEAS ET ASSOCIES PHARMA, priority 2012, published 2015).

The conditions of data set [1]: estimated; absolute bioavailability was not able to be determined; cited from earlier work.
Data set [2] is described as follows: Solubility in supercritical CO2 or another supercritical solvent. The class given is physicochemical. The protocol:
A method for a novel formulation being the object of the present invention, uses the technology of supercritical CO2 based on the solvent power of CO2 which may be modulated at will according to the pressure and temperature conditions which are applied to it. In the supercritical state (more than 74 bars and 31° C.), CO2 has very particular properties. The obtained fluid is characterized by great diffusivity (of the order of that of gases), which gives it good diffusion capability, and a high density which provides it with significant transport and extraction capability.
A supercritical fluid has another advantage over other solvents: its solubility changes depending on whether its temperature or its pressure is varied. Thus it is possible to ensure that it is a solvent for certain substances at a given instant, and no longer for one at the following instant. This facilitates recovery of the substance which was dissolved.
The following step consists of spraying the dissolved active ingredient on an inert support, and then of studying the grain size of the obtained particles as well as the crystalline form of the same particles.
Different parameters were then modified: • changing the inert support (anhydrous lactose replaced with mannitol), • increasing the loading level up to 30% of active ingredient load, • using S modafinil, • a supercritical solvent other than CO2 . […]

The conditions of data set [3]: cited from earlier work.
For data set [4] the following is noted: crystalline white powder, cited from earlier work.

`NC(=O)C[S+]([O-])C(c1ccccc1)c1ccccc1` (racemic) [Modafinil, 2-[(diphenylmethyl)sulfinyl]acetamide]: the bioavailability result in data set [1] is listed as “about 40%”. For the same compound, the “solubility in CO2” value in data set [2] is “acceptable solubility”. In addition, in data set [3] (in humans), the elimination half-life result is listed as “about 14 hours”. The solubility in acetone entry in data set [4] (acetone) is “partly soluble”. Moreover, the solubility in methanol entry in data set [4] (methanol) is on record as “partly soluble”. Besides, the solubility in water result in data set [4] (water) was “practically insoluble”.

Turning to `NC(=O)C[S@@+]([O-])C(c1ccccc1)c1ccccc1` (single isomer, unassigned) [enantiomer R], in data set [3] (after administration), the “AUC (area under the curve) compared with the racemic form” value was “greater AUC (area under the curve) than the racemic form” and the “variability of plasma levels compared with the racemic form” value is “less variability of plasma levels”.
